Test results reported in PubChem BioAssay AID1963961 (Molecular Pharmacology Branch, DTP, NCI, 2024).
Values joined by “and” are separate entries in the source; they are usually repeats but may differ in a detail not shown here. Equal values may be shown once.

Test system: K98450-129-R-PDC multicell spheroids, viability
Experiment: Anticancer human tumor K98450-129-R-PDC patient-derived colon adenocarcinoma cell line growth inhibition [PI3K]
Details: for viability, T/C: stronger effect = lower value
Source text: Combinatorial screen of targeted agents with the PI3K inhibitors inavolisib, alpelisib, duvelisib, and copanlisib in multi-cell type tumor spheroids
A high-throughput screen of multi-cell type tumor spheroids was designed to identify active combinations of targeted small molecules and PI3K pathway inhibitors. Complex spheroids include a stromal component modeled by human endothelial cells (HUVEC) and fibroblasts modeled by human mesenchymal stem cells (MSCs). The concentration ranges selected for each drug and investigational agent were based upon clinically achievable concentrations if the clinical Cmax of the agent was known.
Compounds. The drugs and investigational agents: inavolisib (NSC800729), alpelisib (NSC765974), duvelisib (NSC772469), copanlisib (NSC816437), ipatasertib (NSC767898), afuresertib (NSC778305), talazoparib (NSC767125), sapanisertib (NSC764658), selumetinib (NSC741078), tovorafenib (DAY101, NSC766906), vemurafenib (NSC761431), ravoxertinib (NSC781343), sotorasib (NSC818433), MRTX1133 (NSC 836407), abemaciclib (NSC 768073), palbociclib (NSC758247), venetoclax (NSC 766270), SY5609 (NSC837396), enzalutamide (NSC755605), and darolutamide (NSC825331), were obtained from the National Cancer Institute (NCI) Developmental Therapeutics Program Chemical Repository. The FDA-approved anticancer drug set is available from the NCI Developmental Therapeutics Program. […] The stock solutions were prepared in dimethyl sulfoxide (DMSO, Sigma-Aldrich, St. Louis, MO, cat. D2650) at 800-fold the tested concentration and stored at -70 degrees C prior to their use. All drugs and investigational agents were tested over a range starting from a high concentration at or near the clinical Cmax and decreasing in half-log increments. If the clinical Cmax for an agent had not been determined, the highest concentration tested was 10 microM.
Cell Culture. All cells were maintained in an incubator at 37 degrees C and 5% CO2 with 95% humidity. The PDC lines were cultured according to standard operating procedures established by the NCI PDMR (https://pdmr.cancer.gov/sops/default.htm). All PDCs were thawed and cultured in Matrigel-coated flasks prepared with a working solution of 1X Ham's F-12 nutrient mix, without supplementation (Invitrogen, Waltham, MA, cat. 11765054), 100 U/mL penicillin-streptomycin (Invitrogen, cat. 15140122), and 2.5% Matrigel (Corning Inc., Corning, NY, cat. 354248) for the first three passages. The 354836-022-R-J1-PDC, 475296-252-R-J1-PDC, and 997726-040-R-J2-PDC lines were cultured in 6A media, which includes advanced DMEM/F-12 (Thermo Fisher Scientific, cat. 12634028), 10 mM HEPES (Thermo Fisher Scientific, cat. 15630080), 1X GlutaMAX supplement (Thermo Fisher Scientific, cat. 35050061), 0.1 mg/mL primocin (InvivoGen, San Diego, CA, cat. ant-pm-2), 10% defined fetal bovine serum, heat inactivated (HyClone Laboratories Inc., Logan, UT, cat. SH30070.03HI), 50% L-WRN conditioned media (ATCC, cat. CRL-3276), 1.25 mM N-Acetyl-L-cysteine (Sigma-Aldrich, cat. A9165), 10 mM nicotinamide (Sigma-Aldrich, cat. N0636), 1X B-27 supplement (Thermo Fisher Scientific, cat. 17504044), 1X N-2 supplement (Thermo Fisher Scientific, cat. 17502048), and 10 microM Y-27632 dihydrochloride (Tocris Bioscience, Bristol, United Kingdom, cat. 1254). The 624824-186-R-J2-PDC line was cultured in 6C/Colon 1B media, which includes all 6A media components plus 50 ng/mL human EGF recombinant protein (Thermo Fisher Scientific, cat. PHG0311). […]

[1] = curve of first compound, second compound 0.0316 µM
[2] = curve of first compound, second compound 0.1 µM
[3] = curve of first compound, second compound 0.316 µM
[4] = curve of first compound, second compound 1 µM
[5] = second compound 0.0316 µM, first compound 0.000316 µM
[6] = second compound 0.0316 µM, first compound 0.001 µM
[7] = second compound 0.0316 µM, first compound 0.00316 µM
[8] = second compound 0.0316 µM, first compound 0.01 µM
[9] = second compound 0.0316 µM, first compound 0.0316 µM
[10] = second compound 0.0316 µM, first compound 0.1 µM
[11] = second compound 0.1 µM, first compound 0.000316 µM
[12] = second compound 0.1 µM, first compound 0.001 µM
[13] = second compound 0.1 µM, first compound 0.00316 µM
[14] = second compound 0.1 µM, first compound 0.01 µM
[15] = second compound 0.1 µM, first compound 0.0316 µM
[16] = second compound 0.1 µM, first compound 0.1 µM
[17] = second compound 0.316 µM, first compound 0.000316 µM
[18] = second compound 0.316 µM, first compound 0.001 µM
[19] = second compound 0.316 µM, first compound 0.00316 µM
[20] = second compound 0.316 µM, first compound 0.01 µM
[21] = second compound 0.316 µM, first compound 0.0316 µM
[22] = second compound 0.316 µM, first compound 0.1 µM
[23] = second compound 1 µM, first compound 0.000316 µM
[24] = second compound 1 µM, first compound 0.001 µM
[25] = second compound 1 µM, first compound 0.00316 µM
[26] = second compound 1 µM, first compound 0.01 µM
[27] = second compound 1 µM, first compound 0.0316 µM
[28] = second compound 1 µM, first compound 0.1 µM
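Further: spheroids exposed to agents for seven days before read-out.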

Work on `CC(C)n1nc(-c2ccc3oc(N)nc3c2)c2c(N)ncnc21` + COc1c(OCCCN2CCOCC2)ccc2c3n(c(=NC(=O)c4cnc(N)nc4)nc12)CCN3 yielded an IC50 (curve of first compound, second compound 0.00316 µM) of over 100 nM, an IC50 (curve of first compound, second compound 0.01 µM) of over 100 nM and an IC50 [1] of over 100 nM. The IC50 [2] was over 100 nM, the IC50 [3] was over 100 nM and the IC50 [4] was 50.7 nM. The viability, T/C (second compound 0.00316 µM, first compound 0.000316 µM) was 107%, the viability, T/C (second compound 0.00316 µM, first compound 0.001 µM) was 97.4% and the viability, T/C (second compound 0.00316 µM, first compound 0.00316 µM) was 107%. The viability, T/C (second compound 0.00316 µM, first compound 0.01 µM) was 83.6%, the viability, T/C (second compound 0.00316 µM, first compound 0.0316 µM) was 94.1% and the viability, T/C (second compound 0.00316 µM, first compound 0.1 µM) was 72.2%. It also gave a viability, T/C (second compound 0.01 µM, first compound 0.000316 µM) of 114%, a viability, T/C (second compound 0.01 µM, first compound 0.001 µM) of 86.4% and a viability, T/C (second compound 0.01 µM, first compound 0.00316 µM) of 96%. It also gave a viability, T/C (second compound 0.01 µM, first compound 0.01 µM) of 92.2%, a viability, T/C (second compound 0.01 µM, first compound 0.0316 µM) of 94.9% and a viability, T/C (second compound 0.01 µM, first compound 0.1 µM) of 69%. It also gave a viability, T/C [5] of 116%, a viability, T/C [6] of 86% and a viability, T/C [7] of 85.2%. The viability, T/C [8] was 67.9%, the viability, T/C [9] was 74% and the viability, T/C [10] was 56.9%. For the same compound, the viability, T/C [11] was 76.6%, the viability, T/C [12] was 93% and the viability, T/C [13] was 81.7%. The viability, T/C [14] was 78.7%, the viability, T/C [15] was 67.1% and the viability, T/C [16] was 55.5%. For the same compound, the viability, T/C [17] was 58.1%, the viability, T/C [18] was 60.9% and the viability, T/C [19] was 66.1%. The viability, T/C [20] was 70.4%, the viability, T/C [21] was 73.1% and the viability, T/C [22] was 47.7%. For the same compound, the viability, T/C [23] was 53%, the viability, T/C [24] was 59.4% and the viability, T/C [25] was 58.5%. It also gave a viability, T/C [26] of 69.8%, a viability, T/C [27] of 54.8% and a viability, T/C [28] of 35.2%.
With `Cc1nc(NC(=O)N2CCCC2C(N)=O)sc1-c1ccnc(C(C)(C)C(F)(F)F)c1` (stereo not drawn) the viability, T/C (compound 0.0316 µM) was 104% [middle of 8 runs], the viability, T/C (compound 0.1 µM) was 103% [middle of 8 runs] and the viability, T/C (compound 0.316 µM) was 102% [middle of 8 runs]. For the same compound, the viability, T/C (compound 1 µM) was 99.1% [middle of 8 runs], the viability, T/C (compound 3.16 µM) was 93.5% [middle of 8 runs] and the viability, T/C (compound 10 µM) was 75.9% [middle of 8 runs]. For the same compound, the IC50 (compound alone, run of 04/24/2023) was over 10000 nM.
With `CCN1CCN(Cc2ccc(Nc3ncc(F)c(-c4cc(F)c5nc(C)n(C(C)C)c5c4)n3)nc2)CC1` the viability, T/C (compound 0.00316 µM) was 108% [middle of 4 runs], the viability, T/C (compound 0.01 µM) was 99.3% [middle of 4 runs] and the viability, T/C (compound 0.0316 µM) was 106% and 101% (2×) and 97%. The viability, T/C (compound 0.1 µM) was 94.1% [middle of 4 runs], the viability, T/C (compound 0.316 µM) was 86.5% [middle of 4 runs] and the viability, T/C (compound 1 µM) was 87.5% [middle of 4 runs]. For the same compound, the IC50 (curve of compound) was over 1000 nM.
`Cn1ncnc1[C@H]1c2n[nH]c(=O)c3cc(F)cc(c23)N[C@@H]1c1ccc(F)cc1` + CC(Nc1ncnc2nc[nH]c12)c1cc2cccc(Cl)c2c(=O)n1-c1ccccc1 showed an IC50 [1] of over 100 nM, an IC50 [2] of over 100 nM and an IC50 [3] of over 100 nM. The IC50 [4] was over 100 nM, the IC50 (curve of first compound, second compound 3.16 µM) was over 100 nM and the IC50 (curve of first compound, second compound 10 µM) was over 100 nM. It also gave a viability, T/C [5] of 108%, a viability, T/C [6] of 118% and a viability, T/C [7] of 111%. For the same compound, the viability, T/C [8] was 111%, the viability, T/C [9] was 97.9% and the viability, T/C [10] was 87.2%. It also gave a viability, T/C [11] of 110%, a viability, T/C [12] of 106% and a viability, T/C [13] of 97.5%. It also gave a viability, T/C [14] of 107%, a viability, T/C [15] of 104% and a viability, T/C [16] of 114%. The viability, T/C [17] was 109%, the viability, T/C [18] was 97.5% and the viability, T/C [19] was 112%. The viability, T/C [20] was 98.3%, the viability, T/C [21] was 108% and the viability, T/C [22] was 85.5%. The viability, T/C [23] was 100%, the viability, T/C [24] was 97.5% and the viability, T/C [25] was 93.8%. It also gave a viability, T/C [26] of 83.6%, a viability, T/C [27] of 94.5% and a viability, T/C [28] of 95.8%. For the same compound, the viability, T/C (second compound 3.16 µM, first compound 0.000316 µM) was 103%, the viability, T/C (second compound 3.16 µM, first compound 0.001 µM) was 100% and the viability, T/C (second compound 3.16 µM, first compound 0.00316 µM) was 99.3%. For the same compound, the viability, T/C (second compound 3.16 µM, first compound 0.01 µM) was 104%, the viability, T/C (second compound 3.16 µM, first compound 0.0316 µM) was 102% and the viability, T/C (second compound 3.16 µM, first compound 0.1 µM) was 88%. For the same compound, the viability, T/C (second compound 10 µM, first compound 0.000316 µM) was 86.5%, the viability, T/C (second compound 10 µM, first compound 0.001 µM) was 120% and the viability, T/C (second compound 10 µM, first compound 0.00316 µM) was 88.2%. It also gave a viability, T/C (second compound 10 µM, first compound 0.01 µM) of 87.8%, a viability, T/C (second compound 10 µM, first compound 0.0316 µM) of 98.3% and a viability, T/C (second compound 10 µM, first compound 0.1 µM) of 91.8%.
